Results: patent publication US7943358B2, “Polymerase enhancing factor (PEF) extracts, PEF protein complexes, isolated PEF protein, and methods for purifying and identifying” (Agilent Technologies, Inc., priority 1997, dated 2011)
“And” between values parts separate entries of the source, which are not always exact repeats. Equal values may be shown once.

Legend:
[1] = PCR cycling of dCTP alone, HPLC; assay type: physicochemical; conditions: 30 cycles
Description: FIG. 20. Reverse phase HPLC analysis of the products generated by PCR cycling dCTP. dCTP (10 mM in cloned Pfu DNA polymerase PCR buffer) was cycled alone (Panel A) or in the presence of 0.5 ng/μl PEF (Panel 8) or 1.25 U/μl Pfu DNA polymerase (Panel C). Cycling was carried out in a RoboCycler 40 using the following conditions: 95° C. 1 min./30 cycles of: 95° C. 1 min., 60° C. 1 min., 72° C. 10:24 min./72° C. 10 min. 10 μl of the reaction mixtures were chromatographed as described in the FIG. 18 legend. In panel D, the absorbance spectra of dCTP, dUTP, and the product generated from PCR cycling dCTP are compared. The absorbance spectra (200-300 nm) of the following were superimposed: (1) major peak at 8.3-8.8 min. from chromatogram of dCTP+Pfu unheated; (2) peak at 11.867 min. from chromatogram of dUTP in buffer unheated; (3) peak 12.150 from chromatogram C (FIG. 20) showing dCTP+Pfu cycled.
dUTP production was also measured during PCR cycling. A dCTP solution (10 mM dCTP in cloned Pfu DNA polymerase PCR buffer) was subject to PCR cycling in a RoboCycler 40 using the cycling conditions described for the 5.2 kb “on/off” system (example 1). Products generated during PCR were analyzed by HPLC as described above. After 30 cycles, the following products were evident: 79% dCTP, 19% dCDP, 1.8% dCMP, and 0.064% dUTP (FIG. 20, panel A). […] When dCTP was cycled in the presence of Pfu DNA polymerase (50×PCR conditions, 10 mM dCTP and 1.25 U Pfu/μl reaction mix) there was no difference in the amount of dCDP, dCMP, or dUTP produced (FIG. 20, panel C). However, when dCTP was cycled in the presence of PEF (50×PCR conditions, 10 mM dCTP and 0.5 ng PEF/μl reaction mix), the following products were produced: 73% dCTP, 19% dCDP, and 8% dCMP (FIG. 20, panel B).

[2] = Heat treatment of dCTP at 95° C., reverse phase HPLC; assay type: physicochemical
Description: FIG. 18. Reverse phase HPLC analysis of the products generated by heat-treatment of dCTP. dCTP (10 mM in cloned Pfu DNA polymerase PCR buffer) was heated at 95° C. in thin-walled tubes in a RoboCycler 40 temperature gradient block. Incubations were carried out for the following length of time: 0 (panel A), 1 hour (panel 6), or 4 hours (panel C). 10 μl of the reaction mixtures were loaded onto a Waters Delta-pak C18 column (300 angstrom/15 μm), equilibrated in 50 mM triethylammonium acetate, pH (7.0) (A). Products were eluted with acetonitrile (B) at 2 ml/min., using the following gradient: 0% B for 5 minutes, 0-10% B over 20 minutes. Absorbence of the eluate was monitored with a photodiode array detector, and peak areas were integrated at 260 nm. To the right of panels A and C are shown the same chromatograms re-integrated at a higher sensitivity. In panel D, 10 μl of 10 mM dUTP (in cloned Pfu DNA polymerase PCR buffer) was chromatographed.
dUTP, however, is not intentionally added to PCR reactions but may be generated by spontaneous deamination of dCTP during the high temperatures used in PCR cycling (Jens-Peter Horst and Hans-Joachim Fritz. (1996) The EMBO Journal 15; 5459-5469). To assess the extent of dCTP deamination to dUTP during PCR, we incubated dCTP (10 mM) at 95° C. (PCR denaturation temperature) in the presence of cloned Pfu DNA polymerase PCR buffer. The products of heat treatment were analyzed by reverse phase-HPLC (as described above) and peak assignments were made by comparing retention times to those of standards. […] A minor peak at 12.38 minutes was also produced (0.049%/1 hr.; 0.116%/4 hr.), which was identified as dUTP, based upon its retention time (dUTP standard=12.10 minutes; panel D) and absorbence maximum.

Pfu DNA polymerase [3] = target: T1, Pfu DNA polymerase (Pyrococcus furiosus, UniProt P61875); assay: 0.9 kb α1-antitrypsin PCR in absence or presence of dUTP; assay type: biochemical
T1 sequence (P61875 1-775): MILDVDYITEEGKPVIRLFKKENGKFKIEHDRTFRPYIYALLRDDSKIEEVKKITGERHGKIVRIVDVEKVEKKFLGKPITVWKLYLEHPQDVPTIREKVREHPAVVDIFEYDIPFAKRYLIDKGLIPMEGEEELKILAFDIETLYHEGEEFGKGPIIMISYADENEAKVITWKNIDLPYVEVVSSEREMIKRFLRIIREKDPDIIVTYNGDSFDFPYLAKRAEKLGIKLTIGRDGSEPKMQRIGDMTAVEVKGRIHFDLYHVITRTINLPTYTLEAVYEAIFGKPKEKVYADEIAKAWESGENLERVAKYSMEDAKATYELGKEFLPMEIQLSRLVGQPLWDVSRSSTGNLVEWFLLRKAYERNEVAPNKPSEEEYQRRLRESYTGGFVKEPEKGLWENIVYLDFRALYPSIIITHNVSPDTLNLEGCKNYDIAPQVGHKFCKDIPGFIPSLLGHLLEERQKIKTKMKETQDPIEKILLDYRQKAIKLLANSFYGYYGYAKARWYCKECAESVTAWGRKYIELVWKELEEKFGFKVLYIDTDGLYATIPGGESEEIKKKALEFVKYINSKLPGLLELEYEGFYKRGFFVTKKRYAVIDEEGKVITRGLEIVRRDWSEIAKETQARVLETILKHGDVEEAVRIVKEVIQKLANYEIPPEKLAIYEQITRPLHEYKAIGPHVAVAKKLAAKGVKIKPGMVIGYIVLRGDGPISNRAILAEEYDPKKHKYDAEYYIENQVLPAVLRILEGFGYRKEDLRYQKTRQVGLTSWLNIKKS
Description: A relatively small (0.9 kb) fragment of the human α1-antitrypsin gene was amplified in the absence or presence of dUTP. PCR reaction mixtures contained the following (in a 100 μl volume): 1× Cloned Pfu polymerase buffer; 200 μM each, dCTP, dGTP, dATP; 200 ng oligo F91-23 (100 ng/μl); 200 ng oligo R980-23 (100 ng/μl); 125 ng Human genomic DNA; 2.5 units Pfu DNA polymerase; 200 μM total of (dTTP and dUTP) or (dTTP+PEF generated dUMP).
PCR cycling was carried out as follows: 95° C. for 1 minute (1 cycle); 95° C. for 1 minute—58° C. for 1 minute—72° C. for 2 minutes (30 cycles).
Seven ng of PEF can reverse the inhibition caused by as much as 20 μM dUTP (data not shown). The preferred amount of PEF or P45 used in a particular reaction can be optimized according to the principles provided here or by methods for quantifying amplification reactions known in the art.

Pfu DNA polymerase [4] = target: T1, Pfu DNA polymerase; assay: 0.9 kb α1-antitrypsin PCR with unrelated dU-containing or control oligonucleotide; assay type: biochemical; conditions: per 100 ul reaction
[5] = Reverse phase HPLC analysis of dCTP conversion; assay type: biochemical
Description: The similarity of P45 to dCTP deaminases prompted us to test whether dCTP or other nucleotide triphosphates were substrates of PEF/P45. PEF was incubated with dCTP or dUTP and the reaction products were separated by reverse phase HPLC. Reaction mixtures (50 μl) containing 1× cloned Pfu polymerase buffer, 10 mM dCTP or dUTP, and 700 ng PEF (or 5 μl of cloned p45 (˜100 ng) or nothing (neg. control)) were incubated at 72° C. for 1 hour. The samples were injected on a […] Waters Delta-pak C-18 column (300 angstrom/15 μm), equilibrated in 50 mM triethylammonium acetate, pH (7.0) (A). Products were eluted with acetonitrile (B) at 2 ml/min. using the following gradient: 0% B for 5 minutes, 0-10% B over 20 minutes. Absorbence of the eluate was monitored with a photodiode array detector, and peak areas were integrated at 260 nm.

## Nc1ccn([C@H]2C[C@H](O)[C@@H](COP(=O)(O)OP(=O)(O)OP(=O)(O)O)O2)c(=O)n1 [dCTP]
[1]
  dCDP after PCR cycling: 19%
  dCMP after PCR cycling: 1.8%
  dCTP after PCR cycling: 79%
  dUTP after PCR cycling: 0.064%
[2]; 1 hr
  dCMP formed from dCTP: 2.8%
  dUTP formed from dCTP (12.38 minute peak): 0.049%
[2]; 1 hr, 10 mM in cloned Pfu PCR buffer
  dCDP formed from dCTP: 22%
[2]; 4 hr
  dCDP formed from dCTP: 41%
  dCMP formed from dCTP: 25%
  dUTP formed from dCTP (12.38 minute peak): 0.116%

## O=c1ccn([C@H]2C[C@H](O)[C@@H](COP(=O)(O)O)O2)c(=O)[nH]1 [dUMP]
Pfu DNA polymerase [3]; at concentrations of 20 μM
  inhibition of Pfu polymerase-based PCR: not inhibitory

## O=c1ccn([C@H]2C[C@H](O)[C@@H](COP(=O)(O)OP(=O)(O)OP(=O)(O)O)O2)c(=O)[nH]1 [dUTP, deoxyuracil triphosphate]
Pfu DNA polymerase [3]; 0.1% of the dTTP+dUTP pool
  dUTP concentration partially inhibiting amplification of the 900 bp product: 0.2 µM
Pfu DNA polymerase [3]; as low as, 1% of the dTTP+dUTP pool
  dUTP concentration completely inhibiting amplification of the 900 bp product: 2 µM

## control oligonucleotide: control oligo with dT rather than dU (SEQ ID NO: 86) (GGTTTTCCCAGTCACGACGTTGTAAAACGACGGCCAGT; DNA, backbone not given here)
Pfu DNA polymerase [4]
  amount of oligo showing inhibition of the Pfu-based PCR: 16 pmol and 8 pmol

## dU oligo: unrelated primer complementary to M13 DNA containing 9 dUs instead of dTs (SEQ ID NO: 87) (GGUUUUCCCAGUCACGACGUUGUAAAACGACGGCCAGU; DNA, backbone, methylation of C and T or U not given here; further chemistry not fully specified)
Pfu DNA polymerase [4]
  amount of oligo showing inhibition of the Pfu-based PCR: 0.8 pmol

B1: P45: 45 kD component of the Pfu PEF complex, functions as a dUTPase (SEQ ID NO.: 71) (protein, listed as Pyrococcus furiosus)
chain: MLLPDWKIRKEILIEPFSEESLQPAGYDLRVGREAFVKGKLIDVEKEGKVVIPPREYALILTLERIKLPDDVMGDMKIRSSLAREGVIGSFAWVDPGWDGNLTLMLYNASNEPVELRYGERFVQIAFIRLEGPARNPYRGNYQGSTRLAFSKRKKL
[5]
  deamination of dCTP: No deamination
